Data from patent US5817828A, “Pyrazole derivatives” (Nissan Chemical Industries, Ltd., priority 1993, dated 1998).

Legend:
angiotensin II (AngII) = assay: Test for Antagonistic Effect against Angiotensin (inhibition of AngII contraction of rabbit thoracic aorta ring); assay type: cell-based; details: Oryctolagus cuniculus, AngII 10^-8 M, corrected using DMSO, read-out: Percentage of Inhibition of Contraction; for inhibition at 0.1 µM: 1 × 10^-7 M compound; for inhibition at 0.01 µM: 1 × 10^-8 M compound
Method: Test for Antagonistic Effect against Angiotensin:
A rabbit was sacrificed while anesthetized with pentobarbital, and immediately its thoracic aorta was removed. This was cut into a ring specimen, kept at 37° C. and hung in a nutrient liquid (Krebs-Henseleit solution) aerated with a mixed gas comprising 95% oxygen and 5% carbon dioxide, whereupon its isometric contraction was measured. The specimen was equilibrated for one hour, with replacement of the nutrient liquid every 20 minutes, and thereafter angiotensin II (AngII: 10^-8 M) was applied thereto to cause its contraction. To evaluate the effect of the compounds of the present invention, the compound to be tested (10^-7 M or 10^-8 M) was applied as pre-treatment to the specimen in 20 minutes before the fourth application of AngII thereto, the percentage of inhibiting the contraction caused by AngII was obtained on the basis of the third contraction caused by AngII of being 100%. The percentage was corrected, using dimethylsulfoxide (DMSO).

[1] = test system: spontaneous hypertensive male rat; assay: Test for Hypotensive Effect (oral, spontaneous hypertensive rat); assay type: in vivo; details: 30 mg/kg, spontaneous hypertensive male rat (10-week age)
Method: Test for Hypotensive Effect
The compounds of the present invention to be tested were dissolved in a physiological saline solution and was orally administered to a spontaneous hypertensive male rat (10-week age). The blood pressure of the rat was measured, via a pressure transducer through the catheter that had previously been introduced into its aorta from its femoral artery. The variation in the blood pressure was observed from before the application of the compound to 20 hours after the application thereof.

[2] = test system: Angiotensin II (AT2) Receptor; assay: Test for Inhibition of Binding to Angiotensin II (AT2) Receptor; details: 10^-6 M compound; 0.1 nM ^125 I-AngII; bovine brain specimen; 37° C., 30 minutes
Method: Test for Inhibition of Binding to Angiotensin II (AT2) Receptor:
The effect of the compounds of the present invention for inhibiting the binding activity of Angiotensin II (AngII) to the bovine brain receptor were tested, according to the method by J. P. Bennett, Jr. et al. [J. Biol. Chem., 251, 7423-7430 (1976)].
10^-6 M of the compound of the present invention to be tested was added to an aqueous solution containing a predetermined amount of a bovine brain specimen and 0.1 nM of ^125 I-AngII and incubated at 37° C. for 30 minutes. The resulting solution was separated through a glass fiber filter to terminate the reaction. The radioactivity bonded to the filter was quantified by a γ-counter.

Percentage of Inhibition [2]	Compound	inhibition at 0.1 µM (angiotensin II (AngII))	inhibition at 0.01 µM (angiotensin II (AngII))	Time after the administration at which the largest percentage of blood pressure depression was obtained [1]	Largest Percentage of Blood Pressure Depression ([1]; observed to 20 hours)
	CCCN(Cc1ccc(-c2ccccc2-c2nnn[nH]2)cc1)c1nn(CCc2ccccc2)c(-c2ccccc2)c1C(=O)O [compound 61]	77%	34%		
	CCCN(Cc1ccc(-c2ccccc2-c2nnn[nH]2)cc1)c1nn(CCc2ccccc2)c(C(=O)c2ccccc2)c1C(=O)O [compound 71]	36%	14%		
	CCCN(Cc1ccc(-c2ccccc2-c2nnn[nH]2)cc1)c1nn(CCc2ccccc2)c(Cl)c1C(=O)O [compound 56]	84%	51%		
	CCCN(Cc1ccc(-c2ccccc2-c2nnn[nH]2)cc1)c1nn(CCc2ccccc2)c(-c2ccc(OC)cc2)c1C(=O)O [compound 64]	92%	29%		
	CCCN(Cc1ccc(-c2ccccc2-c2nnn[nH]2)cc1)c1nn(CCc2ccccc2)c(-c2cccs2)c1C(=O)O [compound 68]	35%	18%		
	CCCNc1c(C(=O)O)c(N(CCC)Cc2ccc(-c3ccccc3-c3nnn[nH]3)cc2)nn1CCc1ccccc1 [compound 72]	15%	7%		
55.1%	CCCN(Cc1ccc(-c2ccccc2-c2nnn[nH]2)cc1)c1nn(CCc2ccccc2)c(Br)c1C(=O)O [compound 4]	85%	40%	10 h	29.6%
	CCCN(Cc1ccc(-c2ccccc2-c2nnn[nH]2)cc1)c1nn(CCc2ccccc2)c(-c2cccc(Br)n2)c1C(=O)O [compound 67]	35%	13%		
